Test results as given in patent US20230183218A1, “CONDENSED SUBSTITUTED HYDROPYRROLES AS ANTAGONISTS OF THE MUSCARINIC ACETYLCHOLINE RECEPTOR M4” (Vanderbilt University, priority 2020, published 2023).

Experiments:
Rat M4 = biological target: T1, Rat M4 (Rattus norvegicus, UniProt P08485); assay: mAChR M4 cell-based functional assay (calcium flux, antagonist mode vs EC80 acetylcholine), rat M4/Gqi5/CHO-K1 cells; settings: for remaining activity at 30 µM: CHO-K1, % ACh maximum at 30 μM, rat M4, read-out: Rat M4 Emin (%); for IC50: decrease of response elicited by EC80 acetylcholine, rat M4/Gqi5 CHO-K1 cells
T1 construct: expressed in transfected cells; host or cells: CHO-K1 (ATCC), stably co-expressing chimeric G protein Gqi5
T1 sequence (P08485 1-478): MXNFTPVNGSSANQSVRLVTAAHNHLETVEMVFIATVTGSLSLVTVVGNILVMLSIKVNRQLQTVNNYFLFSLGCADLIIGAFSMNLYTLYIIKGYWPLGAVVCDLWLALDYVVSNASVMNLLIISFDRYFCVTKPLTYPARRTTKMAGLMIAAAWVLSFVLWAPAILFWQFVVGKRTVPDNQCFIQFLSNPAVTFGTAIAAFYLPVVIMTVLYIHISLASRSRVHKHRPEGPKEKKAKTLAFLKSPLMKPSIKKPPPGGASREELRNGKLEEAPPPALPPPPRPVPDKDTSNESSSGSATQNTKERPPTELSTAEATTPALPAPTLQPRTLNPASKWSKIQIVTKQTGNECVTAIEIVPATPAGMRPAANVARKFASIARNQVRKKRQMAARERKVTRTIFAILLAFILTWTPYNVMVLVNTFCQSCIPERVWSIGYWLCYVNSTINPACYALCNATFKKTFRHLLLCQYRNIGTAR
Protocol: (§1) Human or rat M4 cDNA, along with the chimeric G protein Gqi5, were transfected into Chinese hamster ovary (CHO-K1) cells purchased from the American Type Culture Collection using Lipofectamine2000. M4/Gqi5/CHO cells were grown in Ham's F-12 medium containing 10% heat-inactivated fetal bovine serum (FBS), 20 mM HEPES, 500 μg/mL G418 sulfate, and 200 μg/mL Hygromycin B.
(§2) For high throughput measurement of agonist-evoked increases in intracellular calcium, CHO-K1 cells stably expressing muscarinic receptors were plated in growth medium lacking G418 and hygromycin at 15,000 cells/20 μL/well in Greiner 384-well black-walled, tissue culture (TC)-treated, clear-bottom plates (VWR). Cells were incubated overnight at 37° C. and 5% CO2. The next day, cells were washed using an ELX 405 (BioTek) with assay buffer; the final volume was then aspirated to 20 μL. Next, 20 μL of a 2.3 μM stock of Fluo-4/acetoxymethyl ester (Invitrogen, Carlsbad, Calif.), prepared as a 2.3 mM stock in DMSO and mixed in a 1:1 ratio with 10% (w/v) Pluronic F-127 and diluted in assay buffer, was added to the wells and the cell plates were incubated for 50 min at 37° C. and 5% CO2. Dye was removed by washing with the ELX 405 and the final volume was aspirated to 20 μL. Compound master plates were formatted in a 10 point concentration-response curve (CRC) format (1:3 dilutions) in 100% DMSO with a starting concentration of 10 or 1 mM using a BRAVO liquid handler (Agilent). Test compound CRCs were then transferred to daughter plates (240 nL) using the Echo acoustic plate reformatter (Labcyte, Sunnyvale, Calif.) and then diluted into assay buffer (40 μL) to a 2× stock using a Thermo Fisher Combi (Thermo Fisher Scientific, Waltham, Mass.).
(§3) Calcium flux was measured using the Functional Drug Screening System (FDSS) 6000 or 7000 (Hamamatsu Corporation, Tokyo, Japan) as an increase in the fluorescent static ratio. Compounds were applied to cells (20 μL, 2×) using the automated system of the FDSS at 2 seconds into the protocol and the data were collected at 1 Hz. At 143 s, 10 μL of an EC20 concentration of the muscarinic receptor agonist acetylcholine was added (5×), followed by the addition of 12 μL of an EC80 concentration of acetylcholine at the 268 s time point (5×). Agonist activity was analyzed as a concentration-dependent increase in calcium mobilization upon compound addition. Positive allosteric modulator activity was analyzed as a concentration-dependent increase in the EC20 acetylcholine response. Antagonist activity was analyzed as a concentration-dependent decrease in the EC80 acetylcholine response; for the purposes of the tables herein, an IC50 (inhibitory concentration 50) was calculated as a concentration-dependent decrease of the response elicited by an EC80 concentration of acetylcholine. Concentration-response curves were generated using a four-parameter logistical equation in XLFit curve fitting software (IDBS, Bridgewater, N.J.) for Excel (Microsoft, Redmond, Wash.) or Prism (GraphPad Software, Inc., San Diego, Calif.) or the Dotmatics software platform (Dotmatics, Bishop's Stortford, UK).
(§4) Compounds were synthesized as described above. Activity (IC50 and Emin) was determined in the mAChR M4 cell-based functional assay as described above and the data are shown in Table 2.

Human M4 = biological target: T2, Human M4 (Homo sapiens, UniProt P08173); assay: mAChR M4 cell-based functional assay (calcium flux, antagonist mode vs EC80 acetylcholine), human M4/Gqi5/CHO-K1 cells; settings: for remaining activity at 30 µM: CHO-K1, % ACh maximum at 30 μM, human M4, read-out: Human M4 Emin (%); for IC50: decrease of response elicited by EC80 acetylcholine, human M4/Gqi5 CHO-K1 cells
T2 construct: expressed in transfected cells; host or cells: CHO-K1 (ATCC), stably co-expressing chimeric G protein Gqi5
T2 sequence (P08173 1-479): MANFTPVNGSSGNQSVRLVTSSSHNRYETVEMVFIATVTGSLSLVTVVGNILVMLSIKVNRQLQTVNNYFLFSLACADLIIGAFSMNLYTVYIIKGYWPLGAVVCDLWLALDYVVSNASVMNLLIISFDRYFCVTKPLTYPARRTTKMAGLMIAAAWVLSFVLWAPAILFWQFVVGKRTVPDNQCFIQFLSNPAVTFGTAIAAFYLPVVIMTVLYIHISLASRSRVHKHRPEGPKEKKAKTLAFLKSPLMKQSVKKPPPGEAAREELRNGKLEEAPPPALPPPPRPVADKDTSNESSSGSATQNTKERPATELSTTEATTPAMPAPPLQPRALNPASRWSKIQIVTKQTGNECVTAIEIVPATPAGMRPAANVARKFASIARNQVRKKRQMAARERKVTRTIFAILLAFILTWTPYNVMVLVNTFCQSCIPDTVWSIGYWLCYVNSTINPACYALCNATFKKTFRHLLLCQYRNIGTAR
Protocol: as §1, §2, §3, §4

| Compound | remaining activity at 30 µM (Rat M4) [%] | IC50 (Rat M4) [nM] | remaining activity at 30 µM (Human M4) [%] | IC50 (Human M4) [nM] |
| --- | --- | --- | --- | --- |
| Fc1ccc(Cl)c(-c2ccc(N[C@H]3C[C@@H]4CN(C5COC5)C[C@@H]4C3)nn2)c1 [compound 14, (3aR,5s,6aS)-N-(6-(2-chloro-5-fluorophenyl)pyridazin-3-yl)-2-(oxetan-3-yl)octahydrocyclopenta[c]pyrrol-5-amine] | 51 | > 10000 | 21 | 5030 |
| Cc1nn(C)cc1-c1ccc(N[C@H]2C[C@@H]3CN(C4CCOC(C)(C)C4)C[C@@H]3C2)nn1 (stereo partly drawn) [compound 22, (3aR,5s,6aS)-N-(6-(1,3-dimethyl-1H-pyrazol-4-yl)pyridazin-3-yl)-2-(2,2-dimethyltetrahydro-2H-pyran-4-yl)octahydrocyclopenta[c]pyrrol-5-amine] | 11 | 6390 | 6 | 4.52 |
| Cc1cc(CN2C[C@H]3C[C@H](Nc4ccc(S(=O)(=O)c5ccccc5)nn4)C[C@H]3C2)nn1C [compound 24, (3aR,5s,6aS)-2-((1,5-dimethyl-1H-pyrazol-3-yl)methyl)-N-(6-(phenylsulfonyl)pyridazin-3-yl)octahydrocyclopenta[c]pyrrol-5-amine] | 35 | > 10000 | 8 | 906 |
| O=S(=O)(c1ccccc1)c1ccc(N[C@H]2C[C@@H]3CN(Cc4ccccn4)C[C@@H]3C2)nn1 [compound 25, (3aR,5s,6aS)-N-(6-(phenylsulfonyl)pyridazin-3-yl)-2-(pyridin-2-ylmethyl)octahydrocyclopenta[c]pyrrol-5-amine] | 26 | > 10000 | 6 | 436 |
| O=S(=O)(c1ccccc1)c1ccc(N[C@H]2C[C@@H]3CN(Cc4ccc5c(c4)OC(F)(F)O5)C[C@@H]3C2)nn1 [compound 26, (3aR,5s,6aS)-2-((2,2-difluorobenzo[d][1,3]dioxol-5-yl)methyl)-N-(6-(phenylsulfonyl)pyridazin-3-yl)octahydrocyclopenta[c]pyrrol-5-amine] | 14 | 3000 | 3 | 1000 |

Stronger by IC50 (Rat M4), values ahead:

| remaining activity at 30 µM (Rat M4) [%] | IC50 (Rat M4) [nM] | remaining activity at 30 µM (Human M4) [%] | IC50 (Human M4) [nM] | Compound |
| --- | --- | --- | --- | --- |
| 17 | 1400 | 3 | 80.2 | Fc1ccc(Cl)c(-c2ccc(N[C@H]3C[C@@H]4CN(C5CCCOC5)C[C@@H]4C3)nn2)c1 (stereo partly drawn) [compound 13, (3aR,5s,6aS)-N-(6-(2-chloro-5-fluorophenyl)pyridazin-3-yl)-2-(tetrahydro-2H-pyran-3-yl)octahydrocyclopenta[c]pyrrol-5-amine] |
| 5 | 884 | 7 | 10.2 | Fc1ccc(Cl)c(-c2ccc(N[C@H]3C[C@@H]4CN(C5CCSCC5)C[C@@H]4C3)nn2)c1 [compound 15, (3aR,5s,6aS)-N-(6-(2-chloro-5-fluorophenyl)pyridazin-3-yl)-2-(tetrahydro-2H-thiopyran-4-yl)octahydrocyclopenta[c]pyrrol-5-amine] |
| 4 | 97.3 | 4 | 1.9 | CC1(C)CC(N2C[C@H]3C[C@H](Nc4ccc(-c5cc(F)ccc5Cl)nn4)C[C@H]3C2)CCO1 (stereo partly drawn) [compound 16, (3aR,5s,6aS)-N-(6-(2-chloro-5-fluorophenyl)pyridazin-3-yl)-2-(2,2-dimethyltetrahydro-2H-pyran-4-yl)octahydrocyclopenta[c]pyrrol-5-amine] |
| 4 | 513 | 4 | 15 | CC1(C)CC(N2C[C@H]3C[C@H](Nc4ccc(-c5cc(F)ccc5Cl)nn4)C[C@H]3C2)CC(C)(C)O1 [compound 18, (3aR,5s,6aS)-N-(6-(2-chloro-5-fluorophenyl)pyridazin-3-yl)-2-(2,2,6,6-tetramethyltetrahydro-2H-pyran-4-yl)octahydrocyclopenta[c]pyrrol-5-amine] |
| 4 | 129 | 3 | 18.7 | CC(=O)Nc1ccc(-c2ccc(N[C@H]3C[C@@H]4CN(C5CCOC(C)(C)C5)C[C@@H]4C3)nn2)cc1 (stereo partly drawn) [compound 20, N-(4-(6-(((3aR,5s,6aS)-2-(2,2-dimethyltetrahydro-2H-pyran-4-yl)octahydrocyclopenta[c]pyrrol-5-yl)amino)pyridazin-3-yl)phenyl)acetamide] |
| 8 | 808 | 7 | 36.2 | CC1(C)CC(N2C[C@H]3C[C@H](Nc4ccc(-c5ccc6nccn6c5)nn4)C[C@H]3C2)CCO1 (stereo partly drawn) [compound 21, (3aR,5s,6aS)-2-(2,2-dimethyltetrahydro-2H-pyran-4-yl)-N-(6-(imidazo[1,2-a]pyridin-6-yl)pyridazin-3-yl)octahydrocyclopenta[c]pyrrol-5-amine] |
| 11 | 1520 | 4 | 65.6 | O=S(=O)(c1ccccc1)c1ccc(N[C@H]2C[C@@H]3CN(CC4CCOCC4)C[C@@H]3C2)nn1 [compound 23, (3aR,5s,6aS)-N-(6-(phenylsulfonyl)pyridazin-3-yl)-2-((tetrahydro-2H-pyran-4-yl)methyl)octahydrocyclopenta[c]pyrrol-5-amine] |
| 4 | 791 | 2 | 12.8 | O=S(=O)(c1ccccc1)c1ccc(N[C@H]2C[C@@H]3CN(Cc4ccc5c(c4)OCO5)C[C@@H]3C2)nn1 [compound 27, (3aR,5s,6aS)-2-(benzo[d][1,3]dioxol-5-ylmethyl)-N-(6-(phenylsulfonyl)pyridazin-3-yl)octahydrocyclopenta[c]pyrrol-5-amine] |
